Here are results for 10 compounds from US20110178070A1, “PI3K/mTOR INHIBITORS” (TAKEDA PHARMACEUTICAL COMPANY LIMITED, priority 2008, published 2011).

Where two headings read alike, the source gives them in different places.

For one experiment, the target named is mTOR (Homo sapiens, UniProt P42345). Put plainly: Z-Lyte biochemical assay, inhibition of mTOR (Example A).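 Further: synthetic Ser/Thr peptide with coumarin–fluorescein FRET pair, phosphorylation protects from protease cleavage, coumarin/fluorescein emission ratio after 400 nm excitation, 1 h kinase reaction, 10-point 3-fold titrations.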
The target in experiment [1] is T1, PI3Kalpha (PIK3CA/PIK3R1, p110 alpha/p85 alpha) (Homo sapiens, UniProt P42336).
T1 construct: recombinant human, full length, N-terminal His-tagged phosphoinositide-3-kinase catalytic subunit alpha polypeptide; His (N); purchased Invitrogen Corp. PV4788; host or cells: insect cells
The experiment can be described thus: Adapta universal kinase assay, inhibition of PI3Kalpha (Example B). The experiment is classed as biochemical. The text has this: In contrast to ATP depletion assays, the Adapta™ assay is extremely sensitive to ADP formation such that a majority of the signal change occurs in the first 10-20% conversion of ATP to ADP. This makes the Adapta™ universal kinase assay ideally suited for use with low activity kinases.
The principle of the Adapta™ universal kinase assay is outlined below. The assay itself can be divided into two phases: a kinase reaction phase, and an ADP detection phase. In the kinase reaction phase, all components required for the kinase reaction are added to the well, and the reaction is allowed to incubate for 60 minutes. After the reaction, a detection solution consisting of a europium labeled anti-ADP antibody, an Alexa Fluor® 647 labeled ADP tracer, and EDTA (to stop the kinase reaction) is added to the assay well. ADP formed by the kinase reaction (in the absence of an inhibitor) will displace the Alexa Fluor® 647 labeled ADP tracer from the antibody, resulting in a decrease in the TR-FRET signal.
ADP formation is determined by calculating the emission ratio from the assay well. The emission ratio is calculated by dividing the intensity of the tracer (acceptor) emission by the intensity of the Eu (donor) emission at 615 nm as shown in the equation below.
Since the Adapta™ technology measures ADP formation (i.e. conversion of ATP to ADP) it can be used to measure any type of ATP hydrolysis, including intrinsic ATPase activity of kinases. In this case, the substrate is water, not a lipid or peptide (Kashem, et al., 2007, J. Biomol. Screen. 12, 1, 70-83).
The combination of recombinant human, full length, N-terminal His-tagged phosphoinositide-3-kinase catalytic subunit alpha polypeptide ([…], PI3Kalpha), expressed in and purified from insect cells along with co-expressed recombinant, full length, untagged phosphoinositide-3-kinase regulatory subunit 1 (p85 alpha) (combination also known as PIK3CA/PIK3R1; Invitrogen Corp. Cat # PV4788) was used as the enzyme for this assay.
The test compounds are screened at 1% DMSO (final) in the well. […] The PIP2:PS Substrate/Kinase Mixture was diluted 2× to working concentration in Kinase Buffer containing 50 mM HEPES pH 7.5, 0.1% CHAPS, and 1 mM EGTA. […] The Detection Mix was prepared in TR-FRET Dilution Buffer.
After the 1 hour Kinase Reaction incubation at room temperature, 5 μL of Detection Mix was added, followed by another 30 sec plate shake to ensure mixing, and the Detection Mix was allowed to equilibrate for 1 hour at room temperature.
Lipid substrates are prepared by creating lipid vesicles. In some cases, these vesicles include a carrier lipid, such as phosphatidylserine (PS). In the assay conditions section above, “PIP2:PS” refers to large unilamellar vesicles (LUVs) containing five mole percent L-α-Phosphatidylinositol-4,5-bisphosphate (PIP2) and ninety-five percent phosphatidylserine (PS), and the concentration listed refers only to the PIP2 substrate, not the PS carrier lipid.

Setting [2] is: IC50 (nM) mTOR, Table 1, 10 μM ATP.
Setting [3] is: Table 1, 25 μM ATP, read-out: IC50 (nM) PI3Kα.

Chain of mTOR (P42345 1360-2549): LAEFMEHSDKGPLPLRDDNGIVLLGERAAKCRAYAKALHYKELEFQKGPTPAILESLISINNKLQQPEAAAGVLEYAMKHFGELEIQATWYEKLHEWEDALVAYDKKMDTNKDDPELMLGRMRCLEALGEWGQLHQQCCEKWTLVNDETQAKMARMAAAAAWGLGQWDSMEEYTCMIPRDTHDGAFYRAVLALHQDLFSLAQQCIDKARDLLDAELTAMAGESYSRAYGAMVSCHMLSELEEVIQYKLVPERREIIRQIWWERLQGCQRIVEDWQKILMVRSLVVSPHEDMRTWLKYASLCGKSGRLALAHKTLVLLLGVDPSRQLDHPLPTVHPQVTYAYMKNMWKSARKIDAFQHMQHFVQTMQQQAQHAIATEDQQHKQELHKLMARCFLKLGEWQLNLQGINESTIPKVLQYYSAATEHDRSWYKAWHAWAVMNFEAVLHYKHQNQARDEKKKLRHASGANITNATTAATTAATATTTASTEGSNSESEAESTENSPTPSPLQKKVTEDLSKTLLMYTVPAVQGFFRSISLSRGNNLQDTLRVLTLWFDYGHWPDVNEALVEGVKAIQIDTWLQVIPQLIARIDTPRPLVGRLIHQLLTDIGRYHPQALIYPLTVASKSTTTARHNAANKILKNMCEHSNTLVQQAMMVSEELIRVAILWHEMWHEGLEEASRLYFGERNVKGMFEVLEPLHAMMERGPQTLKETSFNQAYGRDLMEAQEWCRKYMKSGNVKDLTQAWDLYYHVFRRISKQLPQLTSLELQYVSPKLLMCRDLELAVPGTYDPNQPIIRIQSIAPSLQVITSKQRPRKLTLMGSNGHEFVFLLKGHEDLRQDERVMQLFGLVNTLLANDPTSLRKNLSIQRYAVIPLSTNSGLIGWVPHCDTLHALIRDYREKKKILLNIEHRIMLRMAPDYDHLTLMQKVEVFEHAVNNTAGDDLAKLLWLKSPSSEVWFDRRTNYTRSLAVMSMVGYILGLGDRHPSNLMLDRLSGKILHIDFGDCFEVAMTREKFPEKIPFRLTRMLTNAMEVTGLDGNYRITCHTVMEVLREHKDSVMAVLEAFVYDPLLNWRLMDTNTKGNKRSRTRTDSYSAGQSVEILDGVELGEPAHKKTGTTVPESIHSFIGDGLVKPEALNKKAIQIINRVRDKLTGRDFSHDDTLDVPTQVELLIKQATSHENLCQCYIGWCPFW
T1 sequence (P42336 whole entry): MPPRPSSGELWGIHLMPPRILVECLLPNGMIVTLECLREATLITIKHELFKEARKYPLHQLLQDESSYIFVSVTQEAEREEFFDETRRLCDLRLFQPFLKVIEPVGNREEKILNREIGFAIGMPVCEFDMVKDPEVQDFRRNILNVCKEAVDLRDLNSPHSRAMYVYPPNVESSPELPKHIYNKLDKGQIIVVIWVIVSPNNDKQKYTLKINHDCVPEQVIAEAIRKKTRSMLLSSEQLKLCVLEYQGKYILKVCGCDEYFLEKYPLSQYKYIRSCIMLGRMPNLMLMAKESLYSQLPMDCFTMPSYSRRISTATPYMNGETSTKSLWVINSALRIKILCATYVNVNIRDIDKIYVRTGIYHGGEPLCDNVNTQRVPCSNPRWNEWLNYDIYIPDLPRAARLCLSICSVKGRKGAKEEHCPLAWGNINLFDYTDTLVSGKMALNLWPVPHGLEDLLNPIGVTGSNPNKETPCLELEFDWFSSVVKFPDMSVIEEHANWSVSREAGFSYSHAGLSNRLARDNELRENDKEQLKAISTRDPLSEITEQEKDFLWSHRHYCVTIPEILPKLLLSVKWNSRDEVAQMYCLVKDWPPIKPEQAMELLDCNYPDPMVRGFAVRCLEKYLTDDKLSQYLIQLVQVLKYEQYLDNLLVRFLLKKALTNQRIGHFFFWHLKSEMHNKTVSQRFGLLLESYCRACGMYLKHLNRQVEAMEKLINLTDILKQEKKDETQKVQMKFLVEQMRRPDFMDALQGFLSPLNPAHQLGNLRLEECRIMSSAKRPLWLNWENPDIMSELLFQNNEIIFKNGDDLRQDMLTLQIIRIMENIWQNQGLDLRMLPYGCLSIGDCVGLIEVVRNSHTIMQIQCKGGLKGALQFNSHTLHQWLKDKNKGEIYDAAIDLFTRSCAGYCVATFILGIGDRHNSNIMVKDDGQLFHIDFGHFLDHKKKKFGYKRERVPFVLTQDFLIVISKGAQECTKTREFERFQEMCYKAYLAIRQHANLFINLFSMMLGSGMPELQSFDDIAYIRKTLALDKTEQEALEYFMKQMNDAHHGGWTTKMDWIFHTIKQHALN
T1 sequence (P27986 whole entry partner): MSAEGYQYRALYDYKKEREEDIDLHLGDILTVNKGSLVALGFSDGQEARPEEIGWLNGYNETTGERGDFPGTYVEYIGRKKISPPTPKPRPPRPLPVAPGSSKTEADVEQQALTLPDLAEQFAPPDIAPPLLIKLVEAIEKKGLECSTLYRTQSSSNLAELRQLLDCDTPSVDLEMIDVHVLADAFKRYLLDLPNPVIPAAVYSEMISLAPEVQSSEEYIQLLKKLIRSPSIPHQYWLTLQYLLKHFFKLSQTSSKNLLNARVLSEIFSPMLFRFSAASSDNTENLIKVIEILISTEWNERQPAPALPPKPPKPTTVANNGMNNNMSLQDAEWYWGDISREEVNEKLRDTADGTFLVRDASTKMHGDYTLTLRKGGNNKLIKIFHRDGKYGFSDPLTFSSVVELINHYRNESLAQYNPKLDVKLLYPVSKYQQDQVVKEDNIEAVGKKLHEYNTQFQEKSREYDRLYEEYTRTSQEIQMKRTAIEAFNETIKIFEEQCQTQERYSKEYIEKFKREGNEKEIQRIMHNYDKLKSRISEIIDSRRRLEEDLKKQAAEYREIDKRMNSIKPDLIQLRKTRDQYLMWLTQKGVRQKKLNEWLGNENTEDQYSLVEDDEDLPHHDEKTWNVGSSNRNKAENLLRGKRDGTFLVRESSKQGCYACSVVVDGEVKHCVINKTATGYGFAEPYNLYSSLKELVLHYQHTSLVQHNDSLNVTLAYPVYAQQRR
Method for mTOR: The inhibitory property of a compound relative to mTOR catalysis was determined by using the Z-Lyte™ biochemical assay conducted by Invitrogen Corporation (Madison, Wis.), which employs a fluorescence-based, coupled-enzyme format and is based on the differential sensitivity of phosphorylated and non-phosphorylated peptides to proteolytic cleavage. The peptide substrate is labeled with two fluorophores—one at each end—that make up a FRET pair.
In the primary reaction, the kinase transfers the gamma-phosphate of ATP to a single tyrosine, serine or threonine residue in a synthetic FRET-peptide. In the secondary reaction, a site-specific protease recognizes and cleaves non-phosphorylated FRET-peptides. Phosphorylation of FRET-peptides suppresses cleavage by the Development Reagent. Cleavage disrupts FRET between the donor (i.e., coumarin) and acceptor (i.e., fluorescein) fluorophores on the FRET-peptide, whereas uncleaved, phosphorylated FRET-peptides maintain FRET. A ratio metric method, which calculates the ratio (the Emission Ratio) of donor emission to acceptor emission after excitation of the donor fluorophore at 400 nm, is used to quantitate reaction progress, as shown in the equation below.
A significant benefit of this ratio metric method for quantitating reaction progress is the elimination of well-to-well variations in FRET-peptide concentration and signal intensities. […] Both cleaved and uncleaved FRET-peptides contribute to the fluorescence signals and therefore to the Emission Ratio. The extent of phosphorylation of the FRET-peptide can be calculated from the Emission Ratio.
Recombinant human mTOR enzyme (amino acids 1360-2549), GST-tagged, expressed in and purified from insect cells (Invitrogen Corp. Cat. #PV4753; also known as FRAP1) was used for the assay. The 2×FRAP1 (mTOR)/Ser/Thr 11 Peptide Mixture (Invitrogen Corp.) was prepared in buffer containing 50 mM HEPES pH 7.5, 0.01% BRIJ-35, 10 mM MnCl2, 1 mM EGTA, 2 mM DTT, and 0.02% NaN3. The final 10 μL Kinase Reaction consisted of 7.2-58.1 ng FRAP1 (mTOR) and 2 μM Ser/Thr 11 Peptide in buffer containing 50 mM HEPES pH 7.5, 0.01% BRIJ-35, 5 mM MgCl2, 5 mM MnCl2, 1 mM EGTA, 1 mM DTT, and 0.01% NaN3.
Test compounds are screened in 1% DMSO (final) in the well. For 10 point titrations, 3-fold serial dilutions are conducted from the starting concentration. The Ser/Thr 11 Peptide/Kinase Mixture was diluted to a 2× working concentration in buffer containing 50 mM HEPES pH 7.5, 0.01% BRIJ-35, 10 mM MnCl2, 1 mM EGTA, 2 mM DTT, and 0.02% NaN3. The ATP solution was diluted to a 4× working concentration in buffer containing 50 mM HEPES pH 7.5, 0.01% BRIJ-35, 10 mM MgCl2, and 1 mM EGTA.
After the 1 hour Kinase Reaction incubation, 5 μL of a 1:16 dilution of Development Reagent B was added, and the development reaction was allowed to proceed for an additional 1 hour at room temperature. The assay plate was then read on a fluorescence plate reader and the data analyzed as outlined above.
IC50 values were calculated by non-linear least squares curve fitting using XLfit from IDBS to fit the results to model number 205 (sigmoidal dose-response model).

In the case of `CC(=O)Nc1nc2ccc(-c3ccc(C(C)(C)C#N)cc3)nc2s1` [Example 5, N-(5-(4-(2-Cyanopropan-2-yl)phenyl)thiazolo[5,4-b]pyridin-2-yl)acetamide], the IC50 (against mTOR (setting [2]); in experiment [1] (setting [3])) was greater than 1000 nM each time.

Take `CC(=O)Nc1nc2ccc(-c3cccc4[nH]ccc34)cc2s1` [Example 14, N-(6-(1H-Indol-4-yl)benzo[d]thiazol-2-yl)acetamide]: the IC50 (on mTOR (setting [2]); in experiment [1] (setting [3])) was greater than 1000 nM throughout.

Turning to `CC(=O)Nc1nc2ccc(-c3ccc4[nH]cc(C#N)c4c3)cc2s1` [Example 16, N-(6-(3-Cyano-1H-indol-5-yl)benzo[d]thiazol-2-yl)acetamide], the IC50 was 100 to 1000 nM against mTOR (setting [2]) and greater than 1000 nM in experiment [1] (setting [3]).

`CC(=O)Nc1nc2ccc(-c3ccc4c(c3)NC(=O)CNC4=O)cc2s1` [Example 21, N-(6-(2,5-Dioxo-2,3,4,5-tetrahydro-1H-benzo[e][1,4]diazepin-8-yl)benzo[d]thiazol-2-yl)acetamide]: the IC50 (against mTOR (setting [2]); in experiment [1] (setting [3])) was greater than 1000 nM throughout.

As to `CC(=O)Nc1nc2ccc(-c3ccc(S(C)(=O)=O)cc3)nc2s1` [Example 26, N-(5-(4-(Methylsulfonyl)phenyl)thiazolo[5,4-b]pyridine-2-yl)acetamide], the IC50 (on mTOR (setting [2]); in experiment [1] (setting [3])) was greater than 1000 nM each time.

Regarding `CNS(=O)(=O)c1ccc(-c2ccc3nc(NC(C)=O)sc3n2)cc1` [Example 28, N-(5-(4-(N-Methylsulfamoyl)phenyl)thiazolo[5,4-b]pyridine-2-yl)acetamide], the IC50 (on mTOR (setting [2]); in experiment [1] (setting [3])) was greater than 1000 nM each time.

For the compound `CC(=O)Nc1nc2ccc(-c3ccc(NS(C)(=O)=O)cc3)nc2s1` [Example 29, N-(5-(4-(Methylsulfonamido)phenyl)thiazolo[5,4-b]pyridin-2-yl)acetamide], the IC50 against mTOR (setting [2]) was 100 to 1000 nM; against mTOR (IC50 value for mTOR, exact value in text), 790 nM; in experiment [1] (setting [3]), 100 to 1000 nM; in experiment [1] (exact value in text, read-out: IC50 value for PI3K), 310 nM.

As to `CC(=O)Nc1nc2ccc(-c3cc(NS(C)(=O)=O)c4[nH]ccc4c3)cc2s1` [Example 32, N-(6-(7-(Methylsulfonamido)-1H-indol-5-yl)benzo[d]thiazol-2-yl)acetamide], the IC50 (against mTOR (setting [2]); in experiment [1] (setting [3])) was greater than 1000 nM each time.

Consider `CC(=O)Nc1cccc(-c2ccc3nc(NC(C)=O)sc3c2)c1` [Example 41, N-(3-(2-Acetamidobenzo[d]thiazol-6-yl)phenyl)acetamide], for which the IC50 (against mTOR (setting [2]); in experiment [1] (setting [3])) was greater than 1000 nM throughout.

In the case of `CC(=O)Nc1nc2ccc(-c3cnc(Cl)c(NS(=O)(=O)C4CC4)c3)nc2s1` [Example 49, N-(5-(6-Chloro-5-(cyclopropanesulfonamido)pyridin-3-yl)thiazolo[5,4-b]pyridin-2-yl)acetamide], the IC50 against mTOR (setting [2]) is greater than 1000 nM.
